Molecules are shown by their SMILES. Read-outs that look alike come from different tables or passages of the source.

The target of one data set is T1, human ERα (Homo sapiens, UniProt P03372).
T1 construct: made in house; host or cells: E. coli
T1 sequence (P03372 311-547 limits assumed): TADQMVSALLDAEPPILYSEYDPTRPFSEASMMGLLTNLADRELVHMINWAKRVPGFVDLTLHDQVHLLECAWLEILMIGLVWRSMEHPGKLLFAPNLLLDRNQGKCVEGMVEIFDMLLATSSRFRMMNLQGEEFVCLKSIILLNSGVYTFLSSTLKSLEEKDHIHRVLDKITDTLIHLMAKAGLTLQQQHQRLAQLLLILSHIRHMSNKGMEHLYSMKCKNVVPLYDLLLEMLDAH
In words: Competition with [3H]-17β-estradiol for binding to the ERα ligand binding domain. Particulars: crude E. coli lysate expressing human ERα ligand binding domain; 2 nM [3H]-17β-estradiol; 5-15 hours at room temperature. As to the method: (§1) Representative examples of the invention were evaluated for their ability to compete with 17β-estradiol for both ERα and ERβ. This test procedure provides the methodology for one to determine whether a particular compound binds to the estrogen receptor (and is therefore “estrogenic”) and whether there is selectivity for ERα or ERβ. […] 17β-estradiol is included as a standard reference for comparison. The procedure used is briefly described below. A crude lysate of E. coli expressing the estrogen receptor ligand binding domains D, E, & F) of human ERα or ERβ was prepared. Both receptors and compounds were diluted in 1× Dulbecco's PBS (DPBS) supplemented with 1 mM EDTA. Using a high binding masked microtiter plate, 100 uL of receptor (1 uG/well) was combined with 2 nM [^3H]-17β-estradiol and various concentrations of compound. After between 5 and 15 hours at room temperature, the plates were washed with DPBS/1 mM EDTA and bound radioactivity determined by liquid scintillation counting.

The target of another data set is T2, human ERβ (Homo sapiens, UniProt Q92731).
T2 construct: made in house; host or cells: E. coli
In words: Competition with [3H]-17β-estradiol for binding to the ERβ ligand binding domain. On the procedure: as §1

T2 sequence (Q92731 264-498 limits assumed): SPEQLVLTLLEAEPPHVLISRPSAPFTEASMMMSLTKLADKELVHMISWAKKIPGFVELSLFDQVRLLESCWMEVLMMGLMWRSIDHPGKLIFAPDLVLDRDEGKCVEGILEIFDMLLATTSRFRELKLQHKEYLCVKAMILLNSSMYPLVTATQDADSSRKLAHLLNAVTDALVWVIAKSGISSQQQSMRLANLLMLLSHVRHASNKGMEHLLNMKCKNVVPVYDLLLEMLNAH

As usually defined, the melting point is the temperature, or range, at which the solid turns liquid. For `Cc1c(/C=N/O)c2ccccc2n1-c1ccc(O)cc1` [Example 4, 1-(4-Hydroxyphenyl)-2-methyl-1H-indole-3-carbaldehyde oxime], the melting point was in the range of 171 to 173 °C.

On to `Cc1c(/C=N/O)c2cc(F)ccc2n1-c1ccc(O)cc1` [Example 5, 5-Fluoro-1-(4-hydroxyphenyl)-2-methyl-1H-indole-3-carbaldehyde oxime], for which the melting point lay in the range of 162 to 163 °C. On human ERα, this compound yielded an IC50 of 91 nM. On human ERβ, this compound yielded an IC50 of 6.2 nM.

Take `Cc1c(/C=N/O)c2cc(Cl)ccc2n1-c1ccc(O)cc1` [Example 6, 5-Chloro-1-(4-hydroxyphenyl)-2-methyl-1H-indole-3-carbaldehyde oxime]: the melting point lay within 212 to 213 °C. In addition, the IC50 at human ERα turned out to be 145 nM. Also, the IC50 at human ERβ came to 29 nM.

Consider `Cc1c(/C=N/O)c2cc(Br)ccc2n1-c1ccc(O)cc1` [Example 7, 5-Bromo-1-(4-hydroxyphenyl)-2-methyl-1H-indole-3-carbaldehyde oxime], for which the melting point was 209 to 211 °C. Further, at human ERα, the IC50 was found to be 235 nM. The IC50 on human ERβ was determined as 93.5 nM.

For `O/N=C1\CCCc2c1c1ccccc1n2-c1ccc(O)cc1` [Example 8, (4E)-9-(4-Hydroxyphenyl)-1,2,3,9-tetrahydro-4H-carbazol-4-one oxime], the melting point was 227 to 229 °C. The compound further yielded an IC50 at human ERα of 153 nM. The compound also yielded an IC50 at human ERβ of 10 nM.

As for `O/N=C/c1cn(-c2ccc(O)cc2)c2ccccc12` [Example 9, 1-(4-Hydroxyphenyl)-1H-indole-3-carbaldehyde oxime], the melting point lay within 95 to 97 °C.

Turning to `Cc1c(/C=N/O)c2ccccc2n1-c1ccc(O)c(F)c1` [Example 10, 1-(3-Fluoro-4-hydroxyphenyl)-2-methyl-1H-indole-3-carbaldehyde oxime], the melting point lay within 182 to 184 °C. At human ERβ (crude E. coli lysate expressing human ERβ ligand binding domain, 2 nM [3H]-17β-estradiol, 5-15 hours at room temperature, read-out: ERβ), the IC50 amounted to 8 nM.

For the origin of these results see patent publication US7250440B2, “(Hydroxyphenyl)-1H-indole-3-carbaldehyde oxime derivatives as estrogenic agents” (Wyeth, priority 2003, dated 2007).
